Results taken from patent US11739098B2 (BRISTOL-MYERS SQUIBB COMPANY, priority 2017, dated 2023).

What was measured:
Type in all cases: cell-based
[1] = molecular target: T1, human TLR7 (Homo sapiens, UniProt Q9NYK1); assay: TLR7 inhibition reporter assay (HEK-Blue cells, SEAP reporter, gardiquimod stimulation); settings: HEK-Blue cells overexpressing human TLR7, SEAP reporter, gardiquimod 7.5 μM
T1 construct: host or cells: HEK-Blue cells (HEK293-derived reporter line)
T1 sequence (Q9NYK1 27-1049): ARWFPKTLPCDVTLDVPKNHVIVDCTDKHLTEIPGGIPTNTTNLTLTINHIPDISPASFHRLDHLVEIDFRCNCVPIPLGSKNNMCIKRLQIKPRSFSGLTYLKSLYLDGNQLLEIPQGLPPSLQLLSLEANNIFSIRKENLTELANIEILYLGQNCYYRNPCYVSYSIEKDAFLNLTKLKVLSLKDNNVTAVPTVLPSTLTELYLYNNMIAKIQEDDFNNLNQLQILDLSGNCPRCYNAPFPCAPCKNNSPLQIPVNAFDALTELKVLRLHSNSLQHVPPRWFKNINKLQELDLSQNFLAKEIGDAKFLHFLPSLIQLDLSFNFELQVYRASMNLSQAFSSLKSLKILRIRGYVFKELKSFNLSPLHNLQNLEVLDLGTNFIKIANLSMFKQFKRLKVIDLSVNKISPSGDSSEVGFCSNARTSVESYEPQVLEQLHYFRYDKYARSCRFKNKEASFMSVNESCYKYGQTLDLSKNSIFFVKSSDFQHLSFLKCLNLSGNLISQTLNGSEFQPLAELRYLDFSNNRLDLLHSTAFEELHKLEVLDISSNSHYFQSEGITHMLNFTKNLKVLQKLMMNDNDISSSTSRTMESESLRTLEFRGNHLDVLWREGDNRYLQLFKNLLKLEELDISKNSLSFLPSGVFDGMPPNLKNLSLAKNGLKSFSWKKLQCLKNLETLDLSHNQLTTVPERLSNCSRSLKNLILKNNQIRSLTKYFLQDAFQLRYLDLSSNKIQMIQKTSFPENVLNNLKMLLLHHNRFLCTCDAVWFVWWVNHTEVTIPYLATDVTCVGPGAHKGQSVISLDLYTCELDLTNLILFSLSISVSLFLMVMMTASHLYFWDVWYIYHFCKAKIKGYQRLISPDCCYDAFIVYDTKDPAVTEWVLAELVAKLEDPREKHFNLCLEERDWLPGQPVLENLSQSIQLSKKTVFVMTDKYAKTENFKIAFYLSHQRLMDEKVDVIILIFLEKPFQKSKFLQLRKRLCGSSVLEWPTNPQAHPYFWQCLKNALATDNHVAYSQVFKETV
Procedure, shortened: (§1)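 Read-out is SEAP activity in HEK-Blue detection medium after 22 h at 37 °C, converted to percent inhibition against agonist-plus-DMSO and reference-inhibitor controls. Cells saw compound (0.05 nM–50 μM, 30 min, room temperature) before gardiquimod 7.5 μM, R848 15.9 μM or ODN2006 5 nM for TLR7, TLR8 and TLR9, respectively.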

[2] = molecular target: T2, human TLR8 (Homo sapiens, UniProt Q9NR97); assay: TLR8 inhibition reporter assay (HEK-Blue cells, SEAP reporter, R848 stimulation); settings: HEK-Blue cells overexpressing human TLR8, SEAP reporter, R848 15.9 μM
T2 construct: host or cells: HEK-Blue cells (HEK293-derived reporter line)
T2 sequence (Q9NR97 27-1041): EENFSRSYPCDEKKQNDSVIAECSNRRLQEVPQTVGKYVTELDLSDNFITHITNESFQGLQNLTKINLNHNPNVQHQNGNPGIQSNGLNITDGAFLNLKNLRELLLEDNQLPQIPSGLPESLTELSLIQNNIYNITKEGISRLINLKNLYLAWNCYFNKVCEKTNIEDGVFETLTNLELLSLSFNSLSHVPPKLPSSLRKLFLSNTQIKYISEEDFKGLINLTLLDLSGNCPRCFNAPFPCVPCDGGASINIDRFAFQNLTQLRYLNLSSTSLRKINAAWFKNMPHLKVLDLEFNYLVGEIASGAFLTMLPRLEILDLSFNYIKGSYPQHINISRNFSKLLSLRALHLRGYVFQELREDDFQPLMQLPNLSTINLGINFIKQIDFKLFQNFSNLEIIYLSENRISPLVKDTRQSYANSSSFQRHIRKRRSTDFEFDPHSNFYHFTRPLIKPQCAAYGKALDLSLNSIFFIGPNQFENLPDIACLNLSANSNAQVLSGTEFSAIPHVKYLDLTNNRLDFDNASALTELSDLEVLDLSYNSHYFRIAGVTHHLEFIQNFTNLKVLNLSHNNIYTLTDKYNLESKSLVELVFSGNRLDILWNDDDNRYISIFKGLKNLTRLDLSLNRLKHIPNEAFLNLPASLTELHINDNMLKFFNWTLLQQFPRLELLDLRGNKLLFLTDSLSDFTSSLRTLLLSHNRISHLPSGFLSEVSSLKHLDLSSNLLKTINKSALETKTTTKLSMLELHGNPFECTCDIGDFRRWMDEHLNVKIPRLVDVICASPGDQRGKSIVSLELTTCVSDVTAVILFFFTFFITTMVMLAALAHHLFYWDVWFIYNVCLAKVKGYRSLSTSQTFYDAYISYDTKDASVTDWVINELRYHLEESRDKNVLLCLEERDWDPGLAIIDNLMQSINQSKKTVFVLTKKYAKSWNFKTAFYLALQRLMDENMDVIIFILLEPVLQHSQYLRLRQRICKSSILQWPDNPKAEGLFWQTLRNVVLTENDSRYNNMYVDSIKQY
Procedure, shortened: as §1

[3] = molecular target: T3, human TLR9 (Homo sapiens, UniProt Q9NR96); assay: TLR9 inhibition reporter assay (HEK-Blue cells, SEAP reporter, ODN2006 stimulation); settings: HEK-Blue cells overexpressing human TLR9, SEAP reporter, ODN2006 5 nM
T3 construct: host or cells: HEK-Blue cells (HEK293-derived reporter line)
T3 sequence (Q9NR96 26-1032): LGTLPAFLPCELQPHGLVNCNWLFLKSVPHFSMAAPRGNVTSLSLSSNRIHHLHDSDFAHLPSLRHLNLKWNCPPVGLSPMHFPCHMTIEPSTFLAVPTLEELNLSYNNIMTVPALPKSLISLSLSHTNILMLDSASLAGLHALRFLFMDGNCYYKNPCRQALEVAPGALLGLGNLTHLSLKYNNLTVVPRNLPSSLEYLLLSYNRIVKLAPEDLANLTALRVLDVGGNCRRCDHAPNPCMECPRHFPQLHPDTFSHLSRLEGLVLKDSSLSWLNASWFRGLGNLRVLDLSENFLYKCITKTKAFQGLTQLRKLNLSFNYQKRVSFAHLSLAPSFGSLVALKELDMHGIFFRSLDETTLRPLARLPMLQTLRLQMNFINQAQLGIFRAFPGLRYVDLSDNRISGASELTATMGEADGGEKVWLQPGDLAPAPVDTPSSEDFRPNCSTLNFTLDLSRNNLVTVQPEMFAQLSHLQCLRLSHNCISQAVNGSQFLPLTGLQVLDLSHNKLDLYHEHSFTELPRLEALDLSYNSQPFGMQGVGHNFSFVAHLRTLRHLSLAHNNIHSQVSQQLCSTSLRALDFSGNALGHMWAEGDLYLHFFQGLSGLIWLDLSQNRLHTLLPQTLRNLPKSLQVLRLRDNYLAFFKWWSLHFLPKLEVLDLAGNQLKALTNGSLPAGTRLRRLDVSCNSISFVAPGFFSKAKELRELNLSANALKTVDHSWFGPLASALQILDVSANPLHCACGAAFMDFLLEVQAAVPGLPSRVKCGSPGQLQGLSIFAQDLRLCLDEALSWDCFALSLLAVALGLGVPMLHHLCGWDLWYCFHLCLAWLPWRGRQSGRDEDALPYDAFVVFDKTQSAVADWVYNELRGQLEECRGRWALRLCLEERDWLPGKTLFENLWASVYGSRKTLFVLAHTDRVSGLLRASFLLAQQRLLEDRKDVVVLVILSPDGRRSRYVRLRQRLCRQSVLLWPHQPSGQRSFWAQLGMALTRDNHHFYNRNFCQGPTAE
Procedure, shortened: as §1

Row | IC50 [1] [nM] | IC50 [2] [nM] | IC50 [3] [nM] | SMILES
1 | < 100 | < 100 | 1000 to 50000 | Cc1cc2cc(-c3[nH]c4ccc(C5CCN(CC(=O)N(C)C)CC5)cc4c3C(C)C)cc(C)n2n1 [Example 420, 2-(4-(2-(2,7-dimethylpyrazolo[1,5-a]pyridin-5-yl)-3-isopropyl-1H-indol-5-yl)piperidin-1-yl)-N,N-dimethylacetamide]
2 | < 100 | > 3130 | 100 to 1000 | Cc1cn2cc(-c3[nH]c4ccc(C5CCN(C(=O)CN(C)C)CC5)cc4c3CC(F)F)ccc2n1 [Example 551, 1-(4-(3-(2,2-difluoroethyl)-2-(2-methylimidazo[1,2-a]pyridin-6-yl)-1H-indol-5-yl)piperidin-1-yl)-2-(dimethylamino)ethan-1-one]
3 | < 100 | < 100 | 1000 to 50000 | COc1cc(-c2[nH]c3ccc(C4CCN(C(=O)CN(C)C)CC4)cc3c2C(C)C)cc2nc(C)nn12 [Example 496, 2-(dimethylamino)-1-(4-(3-isopropyl-2-(5-methoxy-2-methyl-[1,2,4]triazolo[1,5-a]pyridin-7-yl)-1H-indol-5-yl)piperidin-1-yl)ethan-1-one]
4 | < 100 | < 100 | 1000 to 50000 | CC(C)c1c(-c2ccc3ncnn3n2)[nH]c2ccc(C3CCN(CC(C)(C)O)CC3)cc12 [Example 746, 1-(4-(2-([1,2,4]triazolo[1,5-b]pyridazin-6-yl)-3-isopropyl-1H-indol-5-yl)piperidin-1-yl)-2-methylpropan-2-ol]
5 | < 100 | 100 to 1000 | 1000 to 50000 | CC(C)c1c(-c2ccn3nnnc3c2)[nH]c2ccc(C3CCNCC3)cc12 [Example 82, 7-(3-isopropyl-5-(piperidin-4-yl)-1H-indol-2-yl)tetrazolo[1,5-a]pyridine]
6 | 1000 to 50000 | 1000 to 50000 | < 100 | CC(C)c1c(-c2nc3c(s2)CNCC3)[nH]c2ccc(C3CCNCC3)cc12 [Example 208, 2-(3-isopropyl-5-(piperidin-4-yl)-1H-indol-2-yl)-4,5,6,7-tetrahydrothiazolo[5,4-c]pyridine]
7 | < 100 | < 100 | 100 to 1000 | CC(C)c1c(-c2ccc3nccn3c2)[nH]c2ccc(C3CCNCC3)c(F)c12 [Example 258, 6-(4-fluoro-3-isopropyl-5-(piperidin-4-yl)-1H-indol-2-yl)imidazo[1,2-a]pyridine]
8 | 100 to 1000 | < 100 | 100 to 1000 | CCc1c(-c2ccnc3[nH]nc(CC)c23)[nH]c2ccc(C3CCNCC3)cc12 [Example 224, 3-ethyl-4-(3-ethyl-5-(piperidin-4-yl)-1H-indol-2-yl)-1H-pyrazolo[3,4-b]pyridine]
9 | < 100 | < 100 | 1000 to 50000 | CCCN1CCC(c2ccc3[nH]c(-c4ccc5c(c4)COC5=O)c(C(C)C)c3c2)CC1 [Example 953, 5-(3-isopropyl-5-(1-propylpiperidin-4-yl)-1H-indol-2-yl)isobenzofuran-1(3H)-one]
10 | < 100 | < 100 | 100 to 1000 | CCc1c(-c2ccnc3[nH]nc(C)c23)[nH]c2ccc(C3CCNCC3)cc12 [Example 226, 4-(3-ethyl-5-(piperidin-4-yl)-1H-indol-2-yl)-3-methyl-1H-pyrazolo[3,4-b]pyridine]
11 | < 100 | < 100 | 1000 to 50000 | Cc1cc(-c2[nH]c3ccc(C4CCN(C(=O)CCN(C)C)CC4)cc3c2C(C)C)cn2nnnc12 [Example 620, 3-(dimethylamino)-1-(4-(3-isopropyl-2-(8-methyltetrazolo[1,5-a]pyridin-6-yl)-1H-indol-5-yl)piperidin-1-yl)propan-1-one]
12 | < 100 | < 100 | 1000 to 50000 | CCOc1cc(-c2[nH]c3ccc(C4CCN(CC(=O)N(C)C)CC4)cc3c2C(C)C)cc2nc(C)nn12 [Example 404, 2-(4-(2-(5-ethoxy-2-methyl-[1,2,4]triazolo[1,5-a]pyridin-7-yl)-3-isopropyl-1H-indol-5-yl)piperidin-1-yl)-N,N-dimethylacetamide]
13 | < 100 | 100 to 1000 | < 100 | Cc1cn2cc(-c3[nH]c4ccc(C5CCN(Cc6c[nH]cn6)CC5)cc4c3C(C)C)ccc2n1 [Example 936, 6-(5-(1-((1H-imidazol-4-yl)methyl)piperidin-4-yl)-3-isopropyl-1H-indol-2-yl)-2-methylimidazo[1,2-a]pyridine]
14 | > 50000 | > 50000 | 1000 to 50000 | CCc1c(-c2cccc3c2cnn3C)[nH]c2ccc(C3CCN(C(=O)CN(C)C)CC3)cc12 [Example 520, 2-(dimethylamino)-1-(4-(3-ethyl-2-(1-methyl-1H-indazol-4-yl)-1H-indol-5-yl)piperidin-1-yl)ethan-1-one]
15 | < 100 | < 100 | 100 to 1000 | CCc1c(-c2ccnc3[nH]ccc23)[nH]c2ccc(C3CCNCC3)cc12 [Example 236, 4-(3-ethyl-5-(piperidin-4-yl)-1H-indol-2-yl)-1H-pyrrolo[2,3-b]pyridine]
